Results reported in ChEMBL document CHEMBL1201862, “PubChem BioAssay data set” (2004).
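Assay format: 96-well plates, 48-hour exposure. The concentration for 50% growth inhibition is given as GI50.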 Calls of active or inactive are those of the source. Cut-off read from the data, not from the text of the source: active = GI50 up to about 1.1 µM and inactive = higher.

Experiments:
Experiment in all cases: growth of human tumour cells (NCI), 48 h
A498 = system: A498
NCI-H460 = system: NCI-H460
TK-10 = system: TK-10
HCT-116 = system: HCT-116
PC-3 = system: PC-3
NCI-H23 = system: NCI-H23
OVCAR-4 = system: OVCAR-4
KM12 = system: KM12
NCI/ADR-RES = system: NCI/ADR-RES
HL-60 = system: HL-60
OVCAR-8 = system: OVCAR-8
MDA-MB-435 = system: MDA-MB-435
SNB-19 = system: SNB-19
K562 = system: K562
SF-539 = system: SF-539
A549 = system: A549
SNB-75 = system: SNB-75
Malme-3M = system: Malme-3M
CAKI-1 = system: CAKI-1

Measured: GI50

CC(C)C1N(C)c2ccc(Cl)cc2[C@H]2c3ccccc3CCN12 (stereo partly drawn)
inactive: A498 78 µM | NCI-H460 94.8 µM | TK-10 89.9 µM | HCT-116 40.2 µM | PC-3 62.4 µM | NCI-H23 > 100 µM | OVCAR-4 69.2 µM | KM12 50.9 µM | NCI/ADR-RES > 100 µM | HL-60 27.7 µM | OVCAR-8 > 100 µM | MDA-MB-435 23 µM | SNB-19 > 100 µM | K562 71.8 µM | SF-539 > 100 µM | A549 39 µM | SNB-75 61.8 µM

COC(=O)c1csc(-c2csc(CCNC(=O)OC(C)(C)C)n2)n1
inactive: Malme-3M > 100 µM | A498 26.1 µM | NCI-H460 > 100 µM | TK-10 > 100 µM | HCT-116 > 100 µM | PC-3 56.1 µM | NCI-H23 > 100 µM | KM12 > 100 µM | NCI/ADR-RES 54.3 µM | HL-60 > 100 µM | OVCAR-8 > 100 µM | MDA-MB-435 > 100 µM | SNB-19 > 100 µM | K562 > 100 µM | SF-539 > 100 µM | A549 > 100 µM | SNB-75 51.8 µM

COC(=O)C1=C(C(=O)OC)C(C(=O)c2ccc(Br)cc2)N2N=C(c3ccc(Cl)cc3)C=CC12 (stereo not drawn)
inactive: Malme-3M > 100 µM | A498 > 100 µM | NCI-H460 > 100 µM | TK-10 > 100 µM | HCT-116 > 100 µM | PC-3 80.4 µM | CAKI-1 80.7 µM | NCI-H23 > 100 µM | OVCAR-4 > 100 µM | KM12 14.5 µM | NCI/ADR-RES > 100 µM | HL-60 > 100 µM | OVCAR-8 > 100 µM | MDA-MB-435 > 100 µM | SNB-19 > 100 µM | K562 > 100 µM | A549 98.2 µM | SNB-75 35.2 µM

C=C1CC[C@H]2C(=O)OC(c3ccoc3)C[C@]2(C)C/C=C\C=C/1C(=O)OC (stereo partly drawn)
inactive: Malme-3M > 25 µM | A498 > 25 µM | NCI-H460 > 25 µM | TK-10 > 25 µM | HCT-116 > 25 µM | PC-3 > 25 µM | CAKI-1 > 25 µM | NCI-H23 11.4 µM | OVCAR-4 > 25 µM | KM12 > 25 µM | NCI/ADR-RES 13.2 µM | OVCAR-8 > 25 µM | SNB-19 > 25 µM | K562 > 25 µM | SF-539 > 25 µM | A549 > 25 µM | SNB-75 24 µM

c1cncc(-c2ncc3cccnc3n2)c1
inactive: Malme-3M > 100 µM | A498 > 100 µM | NCI-H460 > 100 µM | TK-10 > 100 µM | HCT-116 > 100 µM | PC-3 > 100 µM | CAKI-1 > 100 µM | NCI-H23 > 100 µM | OVCAR-4 > 100 µM | KM12 > 100 µM | NCI/ADR-RES > 100 µM | HL-60 > 100 µM | OVCAR-8 > 100 µM | SNB-19 > 100 µM | K562 > 100 µM | SF-539 > 100 µM | A549 > 100 µM | SNB-75 > 100 µM

CC(C)(C)c1ccnc(/N=C2\N/C(=N\c3cc(C(C)(C)C)ccn3)c3ccccc32)c1
inactive: Malme-3M 24.8 µM | A498 19.9 µM | NCI-H460 38.7 µM | TK-10 21.4 µM | HCT-116 14.6 µM | CAKI-1 26.6 µM | NCI-H23 30.7 µM | OVCAR-4 > 100 µM | KM12 41.8 µM | HL-60 36.3 µM | OVCAR-8 17.9 µM | SNB-19 22.2 µM | K562 41.3 µM | SF-539 67.1 µM | A549 26.1 µM | SNB-75 > 100 µM

N#C/N=C(/N)c1sc2nc3c(c(-c4ccc(Br)cc4)c2c1N)CCCC3
inactive: A498 16.1 µM | NCI-H460 21.1 µM | TK-10 33.1 µM | HCT-116 9.02 µM | PC-3 11.6 µM | CAKI-1 14.5 µM | NCI-H23 26.1 µM | OVCAR-4 3.21 µM | KM12 21.3 µM | NCI/ADR-RES 21.4 µM | OVCAR-8 24.8 µM | MDA-MB-435 2.73 µM | SNB-19 33.4 µM | K562 9.23 µM | SF-539 22.1 µM | A549 25.4 µM

N#C/C(=C\c1ccccc1O)C(N)=O
inactive: Malme-3M > 100 µM | A498 > 100 µM | NCI-H460 55.7 µM | TK-10 > 100 µM | HCT-116 77.3 µM | CAKI-1 54.8 µM | NCI-H23 82.4 µM | OVCAR-4 > 100 µM | KM12 56.5 µM | HL-60 20.1 µM | OVCAR-8 > 100 µM | SNB-19 71.8 µM | K562 51.2 µM | SF-539 > 100 µM | A549 > 100 µM | SNB-75 28.1 µM

C[C@H](c1ccccc1)N1C(=O)[C@@H](O)[C@H]1[C@H](CO)OCc1ccccc1
inactive: Malme-3M > 100 µM | A498 20 µM | TK-10 > 100 µM | HCT-116 > 100 µM | PC-3 > 100 µM | NCI-H23 > 100 µM | OVCAR-4 > 100 µM | KM12 > 100 µM | NCI/ADR-RES > 100 µM | OVCAR-8 > 100 µM | MDA-MB-435 > 100 µM | SNB-19 > 100 µM | K562 > 100 µM | A549 > 100 µM | SNB-75 > 100 µM

COC1OC(CO)C(O)C(NC(=O)N(C)N=O)C1O (stereo not drawn)
inactive: Malme-3M > 100 µM | A498 > 100 µM | NCI-H460 > 100 µM | TK-10 > 100 µM | HCT-116 > 100 µM | CAKI-1 > 100 µM | NCI-H23 > 100 µM | OVCAR-4 > 100 µM | KM12 > 100 µM | HL-60 > 100 µM | OVCAR-8 > 100 µM | SNB-19 > 100 µM | K562 > 100 µM | SF-539 > 100 µM | A549 > 100 µM | SNB-75 > 100 µM

COC(=O)Cc1cc(=O)n2c3ccccc3n(C)c2c1C#N
inactive: Malme-3M > 100 µM | A498 > 100 µM | NCI-H460 > 100 µM | TK-10 > 100 µM | HCT-116 > 100 µM | CAKI-1 > 100 µM | NCI-H23 > 100 µM | OVCAR-4 > 100 µM | KM12 > 100 µM | HL-60 > 100 µM | OVCAR-8 > 100 µM | SNB-19 > 100 µM | K562 > 100 µM | SF-539 > 100 µM | A549 > 100 µM | SNB-75 68.7 µM

CN(C)C(=S)/N=c1\ss/c(=N\S(=O)(=O)c2ccccc2)n1C
inactive: Malme-3M > 100 µM | A498 > 100 µM | NCI-H460 > 100 µM | TK-10 > 100 µM | HCT-116 > 100 µM | CAKI-1 > 100 µM | NCI-H23 > 100 µM | OVCAR-4 > 100 µM | KM12 > 100 µM | HL-60 > 100 µM | OVCAR-8 > 100 µM | SNB-19 > 100 µM | K562 > 100 µM | SF-539 > 100 µM | A549 > 100 µM | SNB-75 39.2 µM
